The assay deals with β-glucosidase. The assay can be described thus: DNS reducing sugar assay, Lineweaver-Burk plot. The class given is biochemical, Penicillium simplicissimum. Particulars: citrate buffer pH 4.8, 50 °C, 30 min; salicin 5-50 mg/ml.

One may read the Km as the concentration of substrate that gives half-maximal velocity. Consider `OCc1ccccc1O[C@@H]1O[C@H](CO)[C@@H](O)[C@H](O)[C@H]1O` [salicin], for which the Km stood at 14.881 mg/mL.

For the origin of these results see publication PMC4657531 (EXCLI Journal, 2013).
